Where two headings read alike, the source gives them in different places.
What was measured:
p97 = p97 (Homo sapiens, UniProt P55072); experiment: p97 ATPase assay (Kinase Glo Plus; biomol green for compounds that interfere with luciferase); type: biochemical
How it was run: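 Purified p97 in 50 mM Tris pH 7.4, 20 mM MgCl2, 1 mM EDTA, 0.5 mM TCEP, preincubated 10 min with compound (0–30 μM, triplicate), then ATP 60 min at room temperature. Remaining ATP read by Kinase Glo Plus luminescence, or biomol green at 630 nm for luciferase-interfering compounds; % activity versus DMSO and no-enzyme controls, mean ± SE.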

[1] = test system: p97-dependent Ub^G76V-GFP degradation in HeLa cells; experiment: Ub^G76V-GFP degradation (turn-over) assay; type: cell-based, human; settings: Homo sapiens, HeLa
How it was run: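 HeLa cells expressing Ub^G76V-GFP were imaged, and mean GFP intensity per cell area was taken over 300-500 cells, background-subtracted and normalized to DMSO-treated basal intensity. The degradation rate constant k with compound is expressed as percent of the DMSO control k.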

[2] = read-out: IC50 (μM) Ub^G76V-GFP turn over, p97-dependent Ub^G76V-GFP degradation turn-over assay

p97, sequence (P55072 2-806 limits assumed): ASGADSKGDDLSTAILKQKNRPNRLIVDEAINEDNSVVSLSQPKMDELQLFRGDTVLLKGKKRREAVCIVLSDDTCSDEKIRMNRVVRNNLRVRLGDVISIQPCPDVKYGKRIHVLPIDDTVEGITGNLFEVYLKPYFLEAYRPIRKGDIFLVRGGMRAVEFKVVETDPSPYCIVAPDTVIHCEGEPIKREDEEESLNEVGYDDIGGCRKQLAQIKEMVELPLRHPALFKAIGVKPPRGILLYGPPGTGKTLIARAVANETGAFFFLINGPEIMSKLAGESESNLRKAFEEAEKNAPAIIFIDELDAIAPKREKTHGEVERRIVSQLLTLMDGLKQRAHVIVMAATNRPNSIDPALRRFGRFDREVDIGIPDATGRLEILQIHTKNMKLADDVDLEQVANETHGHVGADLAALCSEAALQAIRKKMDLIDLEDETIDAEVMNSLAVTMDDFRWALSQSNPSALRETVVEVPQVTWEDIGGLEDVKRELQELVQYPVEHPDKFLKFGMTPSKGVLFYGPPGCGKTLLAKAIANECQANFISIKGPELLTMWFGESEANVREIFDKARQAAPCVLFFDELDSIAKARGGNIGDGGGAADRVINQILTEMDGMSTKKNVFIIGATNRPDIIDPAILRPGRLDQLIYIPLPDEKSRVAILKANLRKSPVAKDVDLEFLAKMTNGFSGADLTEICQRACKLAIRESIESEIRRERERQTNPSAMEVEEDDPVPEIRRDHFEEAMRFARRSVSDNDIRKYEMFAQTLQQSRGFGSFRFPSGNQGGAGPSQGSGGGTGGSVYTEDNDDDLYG

Row | Structure (SMILES) | IC50 (p97; p97 ATPase assay) [µM] | IC50 [1, 2] [µM] | IC50 (p97; purified p97, ATP, 60 min room temperature, mean +/- standard error) [µM] | IC50 ([1]; read-out: IC50 (μM) Ub^G76V-GFP turn over, Ub^G76V-GFP-expressing HeLa cells, degradation rate constant k from 90 to 180 min, mean +/- standard error) [µM]
1 | Clc1cccc(Nc2nc(Nc3ccccc3)c3ccccc3n2)c1 [XXV-2] | 34 ± 16 | 12 ± 2 |  | 
2 | c1ccc(CNc2ccnc(N3CCOc4ccccc43)n2)cc1 [XX] | 2.9 ± 0.2 | 27 ± 3 |  | 
3 | Cc1nc(N2CCOc3ccccc32)nc(NCc2ccccc2)c1C [X] |  |  | 1.1 ± 0.2 | 10 ± 1

Source: patent US20110288082A1, “METHODS AND COMPOSITIONS FOR INHIBITION OF THE TRANSITIONAL ENDOPLASMIC RETICULUM ATPASE” (priority 2010, published 2011)
